Measurements from patent publication EP0482657A2, “Cephem compounds, their production and use” (Takeda Chemical Industries, Ltd., priority 1990, dated 1992).

Assays:
[1] = system: Staphylococcus aureus 308A-1; assay: Therapeutic effects against intraperitoneal infections in mice (oral administration); assay type: in vivo; conditions: 308A1, po, 120 h; Slc:ICR mice infected intraperitoneally with Staphylococcus aureus 308A-1; once orally immediately after infection; survival over five days; Reed and Münch; in terms of potency of the said cephem carboxylic acid
Protocol: (§1) Infections in Mice. Test animals: Slc : ICR, 4-week old male mice (body weight 20 to 22 g) were employed. Induction of experimental infections (infected mice):
(§2) Staphylococcus aureus 308A-1 or Escherichia coli 0-111 was cultured in Brain Heart Infusion broth (manufactured by Difco Co.) at 37°C for 20 hours. Each of the organisms was suspended in a 8% mucin solution (manufactured by Difco in) at a concentration of 2 x 10⁸ Colony Forming Units (hereinafter abbreviated as "CFU")/ml and 2 x 10⁵ CFU/ml, respectively, and 0.5 ml of each suspension was administered intraperitoneally. Administration of Test compounds: 25 mg of each test compound was dissolved in 0.5 ml of DMSO, and each solution was diluted in distilled water to prepare two fold dilutions of each compound in the range of 2.5 mg/ml - 0.156 mg/ml in the case of infection with Staphylococcus aureus and in the range of 0.156 mg/ml - 0.01 mg/ml in the case of infection with Escherichia coli. A volume of 0.2 ml of each dilution was once administered orally using a tube into the stomach of five mice each in each group immediately after the infection. […] The ED₅₀ value of each compound was that in terms of the potency of the said cephem carboxylic acid.

Escherichia coli O-111 = assay: as above; assay type: in vivo; conditions: O111, po, 120 h; Slc:ICR mice infected intraperitoneally with Escherichia coli O-111; once orally immediately after infection; survival over five days; Reed and Münch; in terms of potency of the said cephem carboxylic acid
Protocol: as §1, §2

Compound	ED50 [1] [mg/kg]	ED50 (Escherichia coli O-111) [mg/kg]
CCOC(=O)OC(C)OC(=O)C1=C(CSc2nnc(C)s2)CS[C@@H]2[C@H](NC(=O)/C(=N\O)c3csc(N)n3)C(=O)N12 (some centres unmarked) [JP-A-9698/1985 PR Ex.4, 1-(ethoxycarbonyloxy)ethyl ester of the said cephem carboxylic acid, reference compound]	> 25	0.349
Cc1nnc(SCC2=C(C(=O)OC(C)OC(=O)OC3CCC3)N3C(=O)[C@@H](NC(=O)/C(=N\O)c4csc(N)n4)[C@H]3SC2)s1.Cl (stereo partly drawn) [Ex.5, 1-(Cyclobutyloxycarbonyloxy)ethyl 7β-[2-(2-aminothiazol-4-yl)-(Z)-2-hydroxyiminoacetamido]-3-[(2-methyl-1,3,4-thiadiazol-5-yl)thiomethyl]-3-cephem-4-carboxylate hydrochloride]	14	
Cc1nnc(SCC2=C(C(=O)OC(C)OC(=O)OC3CCCC3)N3C(=O)[C@@H](NC(=O)/C(=N\O)c4csc(N)n4)[C@H]3SC2)s1 (stereo partly drawn) [Ex.3, 1-(Cyclopentyloxycarbonyloxy)ethyl 7β-[2-(2-aminothiazol-4-yl)-(Z)-2-hydroxyiminoacetamido]-3-[(2-methyl-1,3,4-thiadiazol-5-yl)thiomethyl]-3-cephem-4-carboxylate]	8.84	0.13
Cc1nnc(SCC2=C(C(=O)OC(C)OC(=O)OC(C)C)N3C(=O)[C@@H](NC(=O)/C(=N\O)c4csc(N)n4)[C@H]3SC2)s1 (single isomer, unassigned) [Ex.1, 1-(Isopropoxycarbonyloxy)ethyl 7β-[2-(2-aminothiazol-4-yl)-(Z)-2-hydroxyiminoacetamido]-3-[(2-methyl-1,3,4-thiazol-5-yl)thiomethyl]-3-cephem-4-carboxylate]	7.02	0.141
Cc1nnc(SCC2=C(C(=O)OCOC(=O)C(C)(C)C)N3C(=O)[C@@H](NC(=O)/C(=N\O)c4csc(N)n4)[C@H]3SC2)s1 [JP-A-9698/1985 PR Ex.3, pivaloyloxymethyl ester of the said cephem carboxylic acid, reference compound]	22.3	0.279
Cc1nnc(SCC2=C(C(=O)OC(C)OC(=O)OC(C)C)N3C(=O)[C@@H](NC(=O)/C(=N\O)c4csc(N)n4)[C@H]3SC2)s1.Cl (stereo partly drawn) [Ex.2, 1-(Isopropoxycarbonyloxy)ethyl 7β-[2-(2-aminothiazol-4-yl)-(Z)-2-hydroxyiminoacetamido]-3-[(2-methyl-1,3,4-thiadiazol-5-yl)thiomethyl]-3-cephem-4-carboxylate hydrochloride]	5.57	0.13
Cc1nnc(SCC2=C(C(=O)O)N3C(=O)[C@@H](NC(=O)/C(=N\O)c4csc(N)n4)[C@H]3SC2)s1 [GB-A-1587941 Ex.16, 7β-[2-(2-aminothiazol-4-yl)-(Z)-2-hydroxyiminoacetamido]-3-[(2-methyl-1,3,4-thiadiazol-5-yl)thiomethyl]-3-cephem-4-carboxylic acid, reference compound]	> 25	1.25
CCC(CC)OC(=O)OC(C)OC(=O)C1=C(CSc2nnc(C)s2)CS[C@@H]2[C@H](NC(=O)/C(=N\O)c3csc(N)n3)C(=O)N12.Cl (stereo partly drawn) [Ex.6, 1-(1-Ethylpropoxycarbonyloxy)ethyl 7β-[2-(2-aminothiazol-4-yl)-(Z)-2-hydroxyiminoacetamido]-3-[(2-methyl-1,3,4-thiadiazol-5-yl)thiomethyl]-3-cephem-4-carboxylate hydrochloride]	12.5	
